Assay results reported in patent US20200157144A1, “ANTIMICROBIAL PEPTIDOMIMETICS” (priority 2017, published 2020).
Values after ≈ are worked out from the molar mass of the structure shown. Like-named read-outs stand apart in the source and are kept apart here. Square brackets hold non-standard residues; d marks the D form. Peptide text beside a SMILES is read from it. dBip(4'-Cl) = N[C@H](Cc1ccc(-c2ccc(Cl)cc2)cc1)C(=O)O

Key:
[1] = test system: Mupirocin-resistant MRSA (ATCC-BAA-1556); assay: Bactericidal/static determination assay at 4xMIC (FIG. 2); format: cell-based, Staphylococcus aureus; details: 4×MIC
[2] = test system: Staphylococcus aureus ATCC 19636; assay: microbe, parasite or virus in culture; format: cell-based; details: ATCC 19636
Procedure: (§1) The antibacterial potency of Compound 34 was measured using the in vitro broth microdilution assay under assay conditions described by the Clinical and Laboratory Standards Institute. […] The test substance was dissolved in 100% DMSO (unless stated below), suspended completely by sonication or vortexing, diluted by 2-fold serial titrations in the same vehicle, for a total of 10 test concentrations (final concentrations: 100, 50, 25, 12.5, 6.25, 3.125, 1.56, 0.78, 0.39, 0.2 μM). A 4 μL aliquot of each dilution was added to 196 μL of broth medium seeded with the organism suspension in wells of a 96 well plate (bacterial count: 2-8×10^5 colony forming units/mL final). The final volume was 200 μL in each well and the final DMSO concentration was 2 percent. The incubation time is either 1 or 2 days at 36° C. All strains tested underwent aerobic respiration, except for ATCC BAA-1805 and ATCC 29399. Following incubation, the test plates were visually examined and wells were scored for growth or complete growth inhibition to define the minimum inhibitory concentration. Each test substance was evaluated in duplicate and the results below are the duplicate test values.

[3] = test system: Staphylococcus aureus ATCC BAA-1717; assay: microbe, parasite or virus in culture; format: cell-based; details: ATCC BAA-1717
Procedure: as §1

[4] = test system: Staphylococcus epidermidis ATCC 12228; assay: microbe, parasite or virus in culture; format: cell-based; details: ATCC 12228
Procedure: as §1

[5] = test system: Enterococcus faecalis ATCC 51299; assay: microbe, parasite or virus in culture; format: cell-based; details: ATCC 51299
Procedure: as §1, with “values. Vehicle-control and an active reference agent were used as blank and positive controls, respectively.” for “values.”

[6] = test system: Enterococcus faecium ATCC BAA-2320; assay: microbe, parasite or virus in culture; format: cell-based; details: ATCC BAA-2320
Procedure: as §1, with “values. Vehicle-control and an active reference agent were used as blank and positive controls, respectively.” for “values.”

[7] = test system: Propionibacterium acnes ATCC 29399; assay: microbe, parasite or virus in culture; format: cell-based; details: ATCC 29399
Procedure: as §1, with “values. Vehicle-control and an active reference agent were used as blank and positive controls, respectively.” for “values.”

S. aureus ECL 2963646 = assay: microbe, parasite or virus in culture; format: cell-based
Procedure: (§2) The antibacterial potency of Compound 34 was measured using the in vitro broth microdilution assay under assay conditions described by the Clinical and Laboratory Standards Institute. […] The test substance was dissolved in 100% DMSO (unless stated below), suspended completely by sonication or vortexing, diluted by 2-fold serial titrations in the same vehicle, for a total of 11 test concentrations. A 4 μL aliquot of each dilution was added to 196 μL of broth medium seeded with the organism suspension in wells of a 96 well plate (bacterial count: 2-8×10^5 colony forming units/mL final). The final volume was 200 μL in each well and the final DMSO concentration was 2%. The incubation time is 1 day at 36° C. All strains tested underwent aerobic respiration. Following incubation, the test plates were visually examined and wells were scored for growth or complete growth inhibition to define the minimum inhibitory concentration. Each test substance was evaluated in duplicate and the results below are the duplicate test values. Vehicle-control and an active reference agent were used as blank and positive controls, respectively.

S. aureus NARSA VRS11b = assay: microbe, parasite or virus in culture; format: cell-based
Procedure: as §2

[8] = test system: S. aureus (ATCC BAA-1556); assay: microbe, parasite or virus in culture
Procedure: S. aureus (BAA-1556) was from ATCC. Mupirocin (Cat # M2955) was purchased from TCI chemicals (India) Pvt. […] Ltd, India, Cation adjusted Mueller Hinton broth (CAMHB) and Mueller Hinton Agar (MHA) (Cat # M1657) were from HiMedia Laboratories Pvt. Ltd, India.
The MIC assay was done based on CLSI guidelines in a microtitre plate format (1, 2). Preparation and dilution of Test Item (TI) stock solutions: A 1280 μg/ml stock of Compound 34 was prepared by dissolving 1.28 mg in 1.0 ml of sterile water to obtain the Master Stock (MS) solution. The MS solution was diluted 2-fold to obtain a series of Working Stock (WS) solutions (Table 7). The final concentration of solvent in the assay was 2.5% and the assay volume was […].
Preparing the inoculum: One day before initiation of experiment, an isolated colony of S. aureus (ATCC BAA-1556) was inoculated into sterile CAMHB and incubated at 37° C. to exponential phase. After incubation, the turbidity was adjusted to that of a 0.5 McFarland Standard (approximately equivalent to 1.0×10^8 CFU/ml) and diluted to ˜1.0×10^6 CFU/ml.
MIC Assay: The MIC assay was performed in a 96 well microtitre plate in a total assay volume of 100 μl (Table 7). Each well containing different concentrations of test compound (concentration range between 0.015625 and 16.0 μg/ml) was inoculated with 50 μl of bacterial suspension (prepared from the inoculum grown overnight and adjusted approximately to 5.0×10^5 CFU/ml) along with culture control (CC, culture in broth), broth control (BC, broth only), and vehicle control (VC, 2.5% solvent in broth plus culture). The plate was incubated at 37° C. for 24 hr and turbidity was measured spectrophotometrically (Absorbance microplate reader, BioTek® India, ELx800™) at 600 nm and visually. The experiment was done in duplicates. The inoculum was also plated for enumeration of bacteria. The MIC was defined as the lowest concentration of test compound that prevented bacterial growth (lack of turbidity by OD at 600 nm and visual inspection relative to no growth control).

N=C(N)NCCC[C@@H](NC(=O)[C@@H](Cc1ccc(-c2ccc(Cl)cc2)cc1)NC(=O)[C@@H](CCCNC(=N)N)NC(=O)[C@H](N)Cc1ccc(-c2ccc(Cl)cc2)cc1)C(N)=O [Compound 34] (H-[dBip(4'-Cl)][dR][dBip(4'-Cl)][dR]-NH2)
bactericidal activity compared to Linezolid, Retapamulin and Vancomycin [1]: higher bactericidal activity than Linezolid, Retapamulin and Vancomycin
MIC [2]: 3.13 µM (≈ 2.64 µg/mL)
MIC [3]: 3.13 µM (≈ 2.64 µg/mL)
MIC [4]: 3.13 µM (≈ 2.64 µg/mL)
MIC [5]: 3.13 µM (≈ 2.64 µg/mL)
MIC [6]: 1.56 µM (≈ 1.32 µg/mL)
MIC [7]: 1.56 µM (≈ 1.32 µg/mL)
MIC (S. aureus ECL 2963646; ECL 2963646, read-out: MIC): 2.37 µM
MIC (S. aureus ECL 2963646; S. aureus ECL 2963646, CAMHB II): 2.0 µg/mL
MIC (S. aureus NARSA VRS11b; NARSA VRS11b, read-out: MIC): 1.18 µM
MIC (S. aureus NARSA VRS11b; S. aureus NARSA VRS11b, CAMHB II): 1.0 µg/mL
Mean MIC ([8]; ATCC BAA-1556, 24 h): 2.37 µM
Mean MIC ([8]; S. aureus (ATCC BAA-1556), CAMHB, 37° C., 24 hr): 2.00 µg/mL
